Like-named read-outs stand apart in the source and are kept apart here.
Assays:
Assay type in all cases: in vivo
[1] = system: Beta vulgaris (BEAVA, sugarbeet); test: Test 2 glasshouse assay (IF50 formulation, X-77), post-emergence herbicidal activity; details: 360 h, 15 DAA, visual score, read-out: Post-emergence herbicidal activity (percentage phytotoxicity) BEAVA; for plant injury at 125 g/ha: application rate 125 g/ha; for plant injury at 30 g/ha: application rate 30 g/ha; for plant injury at 250 g/ha: application rate 250 g/ha
Summary of the method: (§1)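 Plants grown ~12 days (range 10-13) in glasshouse (cool species 20/16° C., warm 24/18° C. day/night; 16 h light; 65% humidity), then sprayed post-emergence with IF50 formulation in aqueous 0.2% v/v X-77. Visual percentage phytotoxicity scored 15 days after application (100% = total damage, 0% = none).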

[2] = system: Glycine max (GLXMA, soybean); test: as above; details: 360 h, 15 DAA, visual score, read-out: Post-emergence herbicidal activity (percentage phytotoxicity) GLXMA; for plant injury at 125 g/ha: application rate 125 g/ha; for plant injury at 30 g/ha: application rate 30 g/ha; for plant injury at 250 g/ha: application rate 250 g/ha
Summary of the method: as §1

[3] = system: Brassica napus (BRSNN, rape); test: as above; details: 360 h, 15 DAA, visual score, read-out: Post-emergence herbicidal activity (percentage phytotoxicity) BRSNN; for plant injury at 125 g/ha: application rate 125 g/ha; for plant injury at 30 g/ha: application rate 30 g/ha; for plant injury at 250 g/ha: application rate 250 g/ha
Summary of the method: as §1

[4] = system: Digitaria sanguinalis (DIGSA); test: as above; details: 360 h, 15 DAA, visual score, read-out: Post-emergence herbicidal activity (percentage phytotoxicity) DIGSA; for pest or weed control at 125 g/ha: application rate 125 g/ha; for pest or weed control at 30 g/ha: application rate 30 g/ha; for pest or weed control at 250 g/ha: application rate 250 g/ha
Summary of the method: (§2)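 Sow in soil → 1 d (pre) or ~12 d (post) at 24/18 °C, 16 h light, 65% RH → spray IF50 (50 g/L stock) in 0.2% v/v X-77, concentration set by application rate → water twice daily → visual % phytotoxicity 20DAA (pre) or 15DAA (post).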

[5] = system: Echinochloa crus-galli (ECHCG); test: as above; details: 360 h, 15 DAA, visual score, read-out: Post-emergence herbicidal activity (percentage phytotoxicity) ECHCG; for pest or weed control at 125 g/ha: application rate 125 g/ha; for pest or weed control at 30 g/ha: application rate 30 g/ha; for pest or weed control at 250 g/ha: application rate 250 g/ha
Summary of the method: as §2

Setaria faberi (SETFA) = test: as above; details: 360 h, 15 DAA, visual score, read-out: Post-emergence herbicidal activity (percentage phytotoxicity) SETFA; for pest or weed control at 125 g/ha: application rate 125 g/ha; for pest or weed control at 30 g/ha: application rate 30 g/ha; for pest or weed control at 250 g/ha: application rate 250 g/ha
Summary of the method: as §2

[6] = system: Panicum miliaceum (PANMI); test: as above; details: 360 h, 15 DAA, visual score, read-out: Post-emergence herbicidal activity (percentage phytotoxicity) PANMI; for pest or weed control at 125 g/ha: application rate 125 g/ha; for pest or weed control at 30 g/ha: application rate 30 g/ha; for pest or weed control at 250 g/ha: application rate 250 g/ha
Summary of the method: as §2

[7] = system: Brachiaria plantaginea (BRAPL); test: as above; details: Urochloa plantaginea, 360 h, 15 DAA, visual score, read-out: Post-emergence herbicidal activity (percentage phytotoxicity) BRAPL; for pest or weed control at 125 g/ha: application rate 125 g/ha; for pest or weed control at 30 g/ha: application rate 30 g/ha; for pest or weed control at 250 g/ha: application rate 250 g/ha
Summary of the method: as §2

[8] = system: Sorghum vulgare Pers. (SORVU); test: as above; details: Sorghum bicolor, 360 h, 15 DAA, visual score, read-out: Post-emergence herbicidal activity (percentage phytotoxicity) SORVU; for pest or weed control at 125 g/ha: application rate 125 g/ha; for pest or weed control at 30 g/ha: application rate 30 g/ha; for pest or weed control at 250 g/ha: application rate 250 g/ha
Summary of the method: as §2

[9] = system: Echinochloa crus-galli (ECHCG); test: Test 1 glasshouse assay, post-emergence herbicidal activity; details: 312 h, after 13 days, read-out: Percentage phytotoxicity ECHCG
Summary of the method: (§3)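 Plants sprayed 8 days after sowing with active ingredient in acetone/water (50:50) containing 0.5% Tween 20, grown in glasshouse at 24/16°C day/night, 14 h light, 65% humidity. Phytotoxicity scored visually after 13 days as percentage damage (100% = total damage; 0% = none).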

[10] = system: Alopecurus myosuroides (ALOMY); test: as above; details: 312 h, after 13 days, read-out: Percentage phytotoxicity ALOMY
Summary of the method: as §3

[11] = post-emergence (Example 1B Table 1)
[12] = post-emergence (Example 1B Table 2)
[13] = post-emergence (Example 1B Table 1), 30 g/ha

C#CCC1CC(=O)C(c2c(F)cc(-c3ccc(Cl)cc3)cc2OC)C1=O (stereo not drawn) [Compound A14]
60%: pest or weed control at 125 g/ha [6]
30%: pest or weed control at 125 g/ha [7]
0%: plant injury at 125 g/ha [2] | plant injury at 125 g/ha [3]
70%: pest or weed control at 62.5 g/ha [10, 11]
90%: pest or weed control at 125 g/ha (Setaria faberi (SETFA)) | pest or weed control at 250 g/ha [10, 11] | pest or weed control at 250 g/ha [10, 12]
100%: pest or weed control at 125 g/ha [4] | pest or weed control at 125 g/ha [5] | pest or weed control at 125 g/ha [8] | pest or weed control at 62.5 g/ha [9, 11] | pest or weed control at 250 g/ha [9, 11] | pest or weed control at 250 g/ha [9, 12]
10%: plant injury at 125 g/ha [1]

C#CCC1CC(=O)C(c2c(C)cc(-c3ncc(Cl)cc3F)cc2C)C1=O (stereo not drawn) [Compound A3]
100%: pest or weed control at 30 g/ha [4] | pest or weed control at 250 g/ha [4] | pest or weed control at 30 g/ha [5] | pest or weed control at 250 g/ha [5] | pest or weed control at 30 g/ha (Setaria faberi (SETFA)) | pest or weed control at 250 g/ha (Setaria faberi (SETFA)) | pest or weed control at 30 g/ha [6] | pest or weed control at 250 g/ha [6] | pest or weed control at 250 g/ha [7] | pest or weed control at 30 g/ha [8] | pest or weed control at 250 g/ha [8] | pest or weed control at 62.5 g/ha [9, 11] | pest or weed control at 250 g/ha [9, 11] | pest or weed control at 62.5 g/ha [9, 12] | pest or weed control at 250 g/ha [9, 12] | pest or weed control at 62.5 g/ha [10, 11] | pest or weed control at 250 g/ha [10, 11] | pest or weed control at 62.5 g/ha [10, 12] | pest or weed control at 250 g/ha [10, 12]
20%: plant injury at 30 g/ha [2]
70%: plant injury at 250 g/ha [1] | plant injury at 250 g/ha [2] | plant injury at 250 g/ha [3]
80%: pest or weed control at 30 g/ha [7]
40%: plant injury at 30 g/ha [1] | plant injury at 30 g/ha [3]

C#CCC1CC(=O)C(c2c(C)cc(-c3ccc(Cl)cn3)cc2C)C1=O (stereo not drawn) [Compound A2]
90%: pest or weed control at 62.5 g/ha [9, 12] | pest or weed control at 62.5 g/ha [10, 11] | pest or weed control at 250 g/ha [10, 11]
40%: plant injury at 30 g/ha [1]
10%: plant injury at 30 g/ha [2]
20%: plant injury at 250 g/ha [2]
50%: plant injury at 250 g/ha [1] | plant injury at 30 g/ha [3]
100%: pest or weed control at 30 g/ha [4] | pest or weed control at 250 g/ha [4] | pest or weed control at 30 g/ha [5] | pest or weed control at 250 g/ha [5] | pest or weed control at 30 g/ha (Setaria faberi (SETFA)) | pest or weed control at 250 g/ha (Setaria faberi (SETFA)) | pest or weed control at 30 g/ha [6] | pest or weed control at 250 g/ha [6] | pest or weed control at 30 g/ha [7] | pest or weed control at 250 g/ha [7] | pest or weed control at 30 g/ha [8] | pest or weed control at 250 g/ha [8] | pest or weed control at 62.5 g/ha [9, 11] | pest or weed control at 250 g/ha [9, 11] | pest or weed control at 250 g/ha [9, 12] | pest or weed control at 250 g/ha [10, 12]
70%: pest or weed control at 62.5 g/ha [10, 12]
80%: plant injury at 250 g/ha [3]

C#CCC1CC(OC(C)=O)=C(c2c(C)cc(-c3ccc(F)cc3)cc2C)C1=O (stereo not drawn) [Compound A45]
80%: plant injury at 125 g/ha [3]
70%: plant injury at 30 g/ha [1] | plant injury at 125 g/ha [1] | pest or weed control at 30 g/ha [8]
10%: plant injury at 125 g/ha [2]
0%: plant injury at 30 g/ha [2]
50%: plant injury at 30 g/ha [3]
100%: pest or weed control at 30 g/ha [4] | pest or weed control at 125 g/ha [4] | pest or weed control at 30 g/ha [5] | pest or weed control at 125 g/ha [5] | pest or weed control at 125 g/ha (Setaria faberi (SETFA)) | pest or weed control at 30 g/ha [6] | pest or weed control at 125 g/ha [6] | pest or weed control at 125 g/ha [7] | pest or weed control at 125 g/ha [8] | pest or weed control at 62.5 g/ha [9, 11] | pest or weed control at 250 g/ha [9, 11] | pest or weed control at 250 g/ha [10, 11]
90%: pest or weed control at 30 g/ha (Setaria faberi (SETFA)) | pest or weed control at 30 g/ha [7] | pest or weed control at 62.5 g/ha [10, 11]

C#CCC1CC(=O)C(c2c(F)cc(-c3ccc(F)c(F)c3)cc2OC)C1=O (stereo not drawn) [Compound A22]
80%: pest or weed control at 30 g/ha (Setaria faberi (SETFA))
60%: pest or weed control at 30 g/ha [6]
0%: plant injury at 30 g/ha [1] | plant injury at 125 g/ha [1] | plant injury at 30 g/ha [2]
40%: plant injury at 125 g/ha [2]
70%: plant injury at 125 g/ha [3] | pest or weed control at 30 g/ha [4] | pest or weed control at 30 g/ha [5] | pest or weed control at 30 g/ha [8] | pest or weed control at 30 g/ha [10, 13]
50%: plant injury at 30 g/ha [3]
90%: pest or weed control at 30 g/ha [7] | pest or weed control at 30 g/ha [9, 13]
100%: pest or weed control at 125 g/ha [4] | pest or weed control at 125 g/ha [5] | pest or weed control at 125 g/ha (Setaria faberi (SETFA)) | pest or weed control at 125 g/ha [6] | pest or weed control at 125 g/ha [7] | pest or weed control at 125 g/ha [8] | pest or weed control at 250 g/ha [9, 11] | pest or weed control at 250 g/ha [10, 11]

Source: patent US10375956B2, “Herbicidally active 2-(substituted-phenyl)-cyclopentane-1,3-dione compounds and derivatives thereof” (Syngenta Limited, priority 2013, dated 2019)
